Source: patent US20070054940A1, “Remedy for down's syndrome” (EISAI CO., LTD., priority 2003, published 2007)
Where a name gives a salt, the structure may show the parent alone.

Legend:
[1] = test system: Down's syndrome model mouse; conditions: cited from earlier work
[2] = test system: human children with Down's syndrome; conditions: 25 human children with Down's syndrome; cited from earlier work
[3] = test system: Down's syndrome; conditions: in vivo; cited from earlier work
[4] = Blood concentration in the patient with rapid retrogression; conditions: human, in vivo; 2 mg/day oral, house visit after 2 months
Procedure: It was confirmed that the subject was spontaneously getting up in the morning with extreme regularity. In addition, in daily activities the patient was sorting laundry, and before administration could not fold one piece in 30 minutes, but after administration could process 10 to 20 pieces in 10 minutes, and was approaching the level prior to the symptoms of rapid retrogression. Furthermore, the patient was able to spontaneously take medicine without the instruction of a parent. […] The blood concentration was 13.7 ng/mL.

SMILES: NC(=O)CN1CCCC1=O [piracetam]
- Cognitive function [1]: an effect in improving cognitive function was seen
- Cognitive function [2]: no improvement in cognitive function was seen

SMILES: N[C@@H](Cc1c[nH]c2ccc(O)cc12)C(=O)O [5-hydroxytryptophan]
- Development of motor skills, language skills, intelligence, or socialization [3]: no efficacy was seen

SMILES: COc1cc2c(cc1OC)C(=O)C(CC1CCN(Cc3ccccc3)CC1)C2 (stereo not shown) [donepezil hydrochloride]
- concentration at 2 months [4]: 13.7 ng/mL
